Laboratory results: PMC8151276, “An Integrated Approach toward NanoBRET Tracers for Analysis of GPCR Ligand Engagement” (Molecules, 2021)

How the values were obtained:
Type in all cases: binding
[1] = target: T1, SSTR4 (Homo sapiens, UniProt P31391); assay: NanoBRET screen HiBiT-SSTR4 in HEK293; conditions: SSTR4
T1 construct: purchased Promega (in-house HiBiT-GPCR construct library, NanoBRET)
Protocol: (§1) Each tracer candidate was screened across the entire library of HiBiT-GPCR constructs using NanoBRET as the detection modality. As depicted in Figure 4A, the specificity of interactions was evaluated through decrease in BRET due to competitive displacement of a bound tracer by excess parental compound. Each tracer was analyzed for binding to each HiBiT-GPCR fusion in the absence and in the presence of competing parental compound. Briefly, HEK293 cells were transfected with HiBiT-GPCR constructs diluted into promoterless DNA to reduce expression and maximize translocation to the cell surface. Each tracer candidate was then screened at concentrations of 1 μM and 0.1 μM across cells expressing these fusions. Cells were treated for 1.5 h with tracer either alone or in the presence of 20 μM competing parental compound (i.e., control). BRET was measured upon addition of purified LgBiT and subsequent complementation with HiBiT genetically fused to a GPCR. The specificity of interactions was assessed through a decrease in BRET signal due to competitive displacement of the bound tracer. To further gauge the robustness of these interactions, the fold response over the control (i.e., BRETtracer/BRETcontrol) was calculated. We chose a 1.5-fold response, which translates to ≥7-fold signal over noise as the minimal threshold required to score an interaction as positive. […]. Below we highlight the screening results obtained for our exemplary fluorescent tracers based on Clozapine, Amitriptyline and AZD1283.
(§2) HiBiT-GPCR DNA constructs were diluted in 10 mM Tris pH 8 to a final concentration of 0.01 μg/μL, arrayed in 96-well plates and stored at −20 °C. For transfection, HEK293 cells were suspended in Opti-MEM (without phenol red) supplemented with 2% fetal bovine serum (Seradigm) and 100 units/mL penicillin–streptomycin (Gibco) at a final concentration of 220,000 cells/mL and dispensed into white 96-well plates at 90 μL/well. Subsequent transfections and screens were carried using an Agilent Bravo Automated Liquid Handling Platform. First, the 96-well HiBiT DNA arrays were diluted 25-fold in Opti-MEM (without serum or phenol red) to a final concentration of 0.0004 μg/μL and 20 μL of the diluted DNAs were transferred into new 96-well plates. Next, promoterless carrier DNA (1 μg/μL) was diluted 25-fold (0.04 μg/μL) and then dispensed into the diluted arrays at 20 μL/well. Following brief mixing, Viafect transfection reagent (Promega) diluted 16-fold into Opti-MEM was dispensed into the plates at 40 μL/well. After mixing by pipetting, plates were incubated for 10 min on the pipetting station deck. The DNA-transfection reagent complexes were then added to plates containing cells. To facilitate the screen, 10 μL of DNA-transfection reagent complexes were added in duplicates to the top 4 and bottom 4 rows, resulting in two identical 48-well arrays per plate. Plates with transfected cells were incubated for 18–20 h at 37 °C/5% CO2. A screen of each tracer across the entire library using two different concentrations requires duplicate plates of transfected cells. Depending on the number of tracers being screened, transfections can be scaled up using the same ratios. The next day, for each tracer, four 20× screening solutions in tracer dilution buffer (Promega) were prepared: two duplicates at final concentration of 20 μM and two duplicates at a final concentration of 2 μM. A competing unmodified compound was added to one of each duplicate at a final concentration of 400 μM. The four resulting solutions were diluted 4-fold in Opti-MEM without serum or phenol red to generate 5× solutions (5 µM and 0.5 µM tracer +/− 100 μM competing compound). To screen the library, a BioTek MultiFlo FX liquid dispenser was used to dispense 22.5 µL of tracer solution to the top 4 rows and 22.5 µL tracer + competing compound solution to the 4 bottom rows. Plates were briefly mixed on an orbital shaker and incubated for 1.5 h at room temperature. […]

[2] = target: T2, FPR3 (Homo sapiens, UniProt P25089); assay: NanoBRET screen HiBiT-FPR3 in HEK293; conditions: FPR3
T2 construct: purchased Promega (in-house HiBiT-GPCR construct library, NanoBRET)
T2 sequence (P25089 1-353): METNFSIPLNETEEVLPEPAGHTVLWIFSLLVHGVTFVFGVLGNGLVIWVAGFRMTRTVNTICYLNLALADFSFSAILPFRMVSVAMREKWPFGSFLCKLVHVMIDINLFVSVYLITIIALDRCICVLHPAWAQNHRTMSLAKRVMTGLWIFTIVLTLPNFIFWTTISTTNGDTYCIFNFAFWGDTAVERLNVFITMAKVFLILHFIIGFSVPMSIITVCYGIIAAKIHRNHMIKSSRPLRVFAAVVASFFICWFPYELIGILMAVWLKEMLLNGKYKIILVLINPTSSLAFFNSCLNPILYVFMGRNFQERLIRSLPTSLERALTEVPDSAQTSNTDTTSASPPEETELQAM
Protocol: as §1, §2

[3] = target: T3, GABBR2 (Homo sapiens, UniProt O75899); assay: NanoBRET screen HiBiT-GABBR2 in HEK293; conditions: GABBR2
T3 construct: purchased Promega (in-house HiBiT-GPCR construct library, NanoBRET)
T3 sequence (O75899 42-941): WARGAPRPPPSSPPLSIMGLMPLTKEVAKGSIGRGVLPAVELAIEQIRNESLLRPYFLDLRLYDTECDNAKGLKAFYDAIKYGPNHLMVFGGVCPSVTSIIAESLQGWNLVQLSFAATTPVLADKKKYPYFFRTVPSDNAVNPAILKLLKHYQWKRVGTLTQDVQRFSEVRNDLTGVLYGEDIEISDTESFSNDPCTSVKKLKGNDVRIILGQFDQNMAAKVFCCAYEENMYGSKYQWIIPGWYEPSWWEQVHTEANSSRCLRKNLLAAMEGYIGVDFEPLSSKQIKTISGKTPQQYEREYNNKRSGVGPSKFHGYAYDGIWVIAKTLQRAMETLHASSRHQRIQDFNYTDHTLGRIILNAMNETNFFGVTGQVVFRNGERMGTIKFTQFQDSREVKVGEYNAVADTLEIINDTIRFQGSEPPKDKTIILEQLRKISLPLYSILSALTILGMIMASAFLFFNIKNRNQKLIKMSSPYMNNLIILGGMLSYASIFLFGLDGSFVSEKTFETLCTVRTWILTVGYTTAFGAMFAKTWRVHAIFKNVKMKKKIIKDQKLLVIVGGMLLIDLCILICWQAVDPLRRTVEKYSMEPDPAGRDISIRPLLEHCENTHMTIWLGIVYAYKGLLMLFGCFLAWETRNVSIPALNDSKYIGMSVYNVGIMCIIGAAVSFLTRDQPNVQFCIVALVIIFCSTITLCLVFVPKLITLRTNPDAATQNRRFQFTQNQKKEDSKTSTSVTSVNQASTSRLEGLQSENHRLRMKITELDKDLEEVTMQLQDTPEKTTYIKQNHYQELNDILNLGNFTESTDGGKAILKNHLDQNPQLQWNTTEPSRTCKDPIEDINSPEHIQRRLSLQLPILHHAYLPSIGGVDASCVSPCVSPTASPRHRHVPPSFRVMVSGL
Protocol: as §1, §2

[4] = target: T4, FZD5 (Homo sapiens, UniProt Q13467); assay: NanoBRET screen HiBiT-FZD5 in HEK293; conditions: FZD5
T4 construct: purchased Promega (in-house HiBiT-GPCR construct library, NanoBRET)
Protocol: as §1, §2

T4 sequence (Q13467 27-585): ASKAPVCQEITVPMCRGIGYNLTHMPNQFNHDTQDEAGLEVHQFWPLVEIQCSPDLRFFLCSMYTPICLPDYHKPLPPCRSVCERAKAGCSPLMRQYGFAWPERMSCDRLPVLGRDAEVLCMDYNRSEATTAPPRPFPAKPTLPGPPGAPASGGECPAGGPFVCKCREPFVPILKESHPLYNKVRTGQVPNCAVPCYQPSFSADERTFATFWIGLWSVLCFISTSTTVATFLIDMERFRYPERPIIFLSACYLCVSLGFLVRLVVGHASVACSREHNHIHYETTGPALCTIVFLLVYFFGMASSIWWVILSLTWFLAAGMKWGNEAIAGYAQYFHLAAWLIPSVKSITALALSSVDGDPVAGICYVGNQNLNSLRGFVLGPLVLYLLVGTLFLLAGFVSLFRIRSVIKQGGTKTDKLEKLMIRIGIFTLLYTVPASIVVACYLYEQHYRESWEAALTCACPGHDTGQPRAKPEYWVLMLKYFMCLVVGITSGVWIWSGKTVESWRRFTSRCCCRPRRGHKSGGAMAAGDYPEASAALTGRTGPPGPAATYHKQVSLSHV
T1 sequence (P31391 whole entry): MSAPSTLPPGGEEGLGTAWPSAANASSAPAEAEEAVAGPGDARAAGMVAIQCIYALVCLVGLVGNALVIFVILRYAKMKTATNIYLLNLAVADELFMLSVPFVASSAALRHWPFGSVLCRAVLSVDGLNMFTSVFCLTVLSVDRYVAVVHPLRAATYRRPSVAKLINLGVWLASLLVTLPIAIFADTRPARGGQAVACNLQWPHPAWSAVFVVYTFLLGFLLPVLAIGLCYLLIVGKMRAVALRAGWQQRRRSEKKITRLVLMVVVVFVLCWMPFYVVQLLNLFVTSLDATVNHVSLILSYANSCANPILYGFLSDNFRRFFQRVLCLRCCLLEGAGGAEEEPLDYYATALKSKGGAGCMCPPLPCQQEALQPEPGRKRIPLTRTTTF

Row | SMILES | NanoBRET Fold Response ([1]; tracer 0.1μM) | NanoBRET Fold Response ([1]; tracer 1μM) | NanoBRET Fold Response ([2]; tracer 0.1μM) | NanoBRET Fold Response ([2]; tracer 1μM) | NanoBRET Fold Response ([3]; tracer 0.1μM) | NanoBRET Fold Response ([3]; tracer 1μM) | NanoBRET Fold Response ([4]; tracer 0.1μM) | NanoBRET Fold Response ([4]; tracer 1μM) | NanoBRET Fold Response ([1]; 0.1μM) | NanoBRET Fold Response ([1]; 1μM) | NanoBRET Fold Response ([2]; 0.1μM) | NanoBRET Fold Response ([2]; 1μM) | NanoBRET Fold Response ([3]; 0.1μM) | NanoBRET Fold Response ([3]; 1μM) | NanoBRET Fold Response ([4]; 0.1μM) | NanoBRET Fold Response ([4]; 1μM)
1 | O=C(CCOCCOCCOCCOCCNC(=O)CCc1ccc2n1[B-](F)(F)[N+]1=C(c3ccc[nH]3)C=CC1=C2)NCCCN1CCN(C2=Nc3ccccc3Oc3ccc(Cl)cc32)CC1 [Loxapine-a-2-NB590] | 1.00 | 1.09 | 1.02 | 1.07 | 1.03 | 0.85 | 1.01 | 0.89 |  |  |  |  |  |  |  | 
2 | COc1ccccc1N1CCN(CCCCN2C(=O)c3ccc(CNC(=O)CCOCCOCCOCCOCCNC(=O)CCc4ccc5n4[B-](F)(F)[N+]4=C(c6ccc[nH]6)C=CC4=C5)cc3C2=O)CC1 [NAN-190-2-NB590] | 1.02 | 1.00 | 1.00 | 0.74 | 0.95 | 1.04 | 0.97 | 1.00 |  |  |  |  |  |  |  | 
3 | COc1ccccc1N1CCN(CCCCN2C(=O)c3ccc(CNC(=O)CCOCCNC(=O)c4ccc(CNC(=O)CCc5ccc6n5[B-](F)(F)[N+]5=C(c7ccc[nH]7)C=CC5=C6)cc4)cc3C2=O)CC1 [NAN-190-3-NB590] | 0.90 | 1.05 | 1.28 | 0.99 | 1.03 | 1.10 | 0.97 | 1.00 |  |  |  |  |  |  |  | 
4 | O=C(CCc1ccc2n1[B-](F)(F)[N+]1=C(c3ccc[nH]3)C=CC1=C2)NCc1ccc(C(=O)NCCOCCC(=O)N[C@@H]2CC[C@@]3(O)[C@H]4Cc5ccc(O)c6c5[C@@]3(CCN4CC3CC3)[C@H]2O6)cc1 [Naltrexone-3-NB590] | 0.99 | 0.90 | 0.82 | 0.92 | 0.80 | 1.11 | 0.99 | 0.98 |  |  |  |  |  |  |  | 
5 | Cc1cc2c(s1)Nc1ccccc1N=C2N1CCN(CCCNC(=O)CCOCCOCCOCCOCCNC(=O)CCc2ccc3n2[B-](F)(F)[N+]2=C(c4ccc[nH]4)C=CC2=C3)CC1 [Olanzapine-a-2-NB590] | 0.98 | 1.04 | 0.92 | 0.96 | 1.01 | 0.82 | 1.00 | 1.02 |  |  |  |  |  |  |  | 
6 | O=C(CCc1ccc2n1[B-](F)(F)[N+]1=C(c3ccc[nH]3)C=CC1=C2)NCc1ccc(C(=O)NCCOCCOCCNCC(O)COc2cccc3ccccc23)cc1 (centres unmarked) [Propranolol-3-NB590] |  |  |  |  |  |  |  |  | 1.02 | 0.98 | 1.03 | 1.03 | 0.96 | 1.13 | 1.07 | 1.02
7 | O=C(CCc1ccc2n1[B-](F)(F)[N+]1=C(c3ccc[nH]3)C=CC1=C2)NCCOCCOCCNC(=O)OCCOCCN1CCN(C2=Nc3ccccc3Sc3ccccc32)CC1 [Quetiapine-a-2-NB590] | 0.99 | 0.83 | 1.28 | 0.66 | 1.06 | 0.91 | 1.03 | 0.91 |  |  |  |  |  |  |  | 
8 | Cc1nc2n(c(=O)c1CCN1CCC(c3noc4cc(F)ccc34)CC1)CCCC2OC(=O)NCCOCCOCCOCCOCCNC(=O)CCc1ccc2n1[B-](F)(F)[N+]1=C(c3ccc[nH]3)C=CC1=C2 (centres unmarked) [Risperidone-2-NB590] | 1.03 | 1.04 | 0.98 | 0.94 | 1.07 | 1.17 | 0.95 | 0.99 |  |  |  |  |  |  |  | 
9 | CC(C)N(CC[C@H](c1ccccc1)c1cc(CCNC(=O)CCOCCOCCOCCOCCNC(=O)CCc2ccc3n2[B-](F)(F)[N+]2=C(c4ccc[nH]4)C=CC2=C3)ccc1O)C(C)C [Tolterodine-2-NB590] | 0.97 | 1.14 | 1.60 | 0.92 | 1.15 | 1.02 | 0.87 | 1.07 |  |  |  |  |  |  |  | 
10 | CC(C)N(CC[C@H](c1ccccc1)c1cc(CCNC(=O)c2ccc(CNC(=O)CCc3ccc4n3[B-](F)(F)[N+]3=C(c5ccc[nH]5)C=CC3=C4)cc2)ccc1O)C(C)C [Tolterodine-BZ-NB590] | 0.99 | 0.93 | 0.71 | 0.93 | 0.87 | 0.71 | 1.12 | 1.03 |  |  |  |  |  |  |  | 
